Experimental data taken from patent US10342796B2, “Acrylanilide derivative, preparation method, and applications thereof in pharmacy” (Ancureall Pharmaceutical (Shanghai) Co., Ltd., priority 2015, dated 2019).
Like-named read-outs stand apart in the source and are kept apart here.

Assays:
Test in all cases: Growth inhibition GI50 in vitro (CCK8/MTT, 72 h)
[1] = tested on: AU565 (Her2 amp); assay type: cell-based, human; details: Homo sapiens
[2] = tested on: Calu-3 (Her2 amp); assay type: cell-based; details: Homo sapiens
[3] = tested on: H1299 (EGFR wt, Nras Q61K); assay type: cell-based, human; details: Homo sapiens, NCI-H1299
[4] = tested on: A549 (EGFR WT); assay type: cell-based, human; details: Homo sapiens
[5] = tested on: H460 (EGFR wt, Kras G61H); assay type: cell-based, human; details: Homo sapiens, NCI-H460
[6] = tested on: A431 (EGFR WT, amplification and high expression); assay type: cell-based, human; details: Homo sapiens, A-431
[7] = tested on: SK-BR-3 (Her2 amp); assay type: cell-based, human; details: Homo sapiens
[8] = tested on: N87 (HER2 Amp); assay type: cell-based, human; details: Homo sapiens
[9] = tested on: H1975 (EGFR L858R/T790M); assay type: cell-based, human; details: Homo sapiens, NCI-H1975
[10] = tested on: PC-9ER (EGFR delE746-A750/T790M); assay type: cell-based, human; details: Homo sapiens, PC-9/ER; EGFR mutant cell line; range of GI50; read-out: GI50 PC9ER
[11] = tested on: PC-9 (EGFR dE746-A750); assay type: cell-based, human; details: Homo sapiens
[12] = tested on: HCC827 (EGFR dE746-A750); assay type: cell-based, human; details: Homo sapiens
[13] = tested on: H292 (EGFR WT); assay type: cell-based; details: Homo sapiens, NCI-H292
[14] = AU565, HER2 positive cell line, range of GI50, read-out: GI50 AU-565
[15] = Calu-3, Table 16, 1000 nM to 0.03 nM serial dilution, read-out: GI50 Calu3 (HER2 amp)
[16] = EGFR wild type cell line, range of GI50, read-out: GI50 H1299
[17] = A549, EGFR wild type cell line, range of GI50, read-out: GI50 A549
[18] = A549, Table 15, 1000 nM to 0.03 nM serial dilution, read-out: GI50 A549 (EGFR WT)
[19] = EGFR wild type cell line, range of GI50, read-out: GI50 H460
[20] = EGFR wild type cell line, range of GI50, read-out: GI50 A431
[21] = SK-BR-3, HER2 positive cell line, range of GI50, read-out: GI50 SK-BR-3
[22] = HER2 positive cell line, range of GI50, read-out: GI50 N87
[23] = Table 16, 1000 nM to 0.03 nM serial dilution, read-out: GI50 N87 (HER2 amp)
[24] = EGFR mutant cell line, range of GI50, read-out: GI50 H1975
[25] = Table 15, 1000 nM to 0.03 nM serial dilution, read-out: GI50 H1975 (EGFR L858R/T790M)
[26] = EGFR mutant cell line, range of GI50, read-out: GI50 PC-9
[27] = Table 15, 1000 nM to 0.03 nM serial dilution, read-out: GI50 PC-9 (EGFR dE746-A750)
[28] = HCC827, EGFR mutant cell line, range of GI50, read-out: GI50 HCC827
[29] = Table 15, 1000 nM to 0.03 nM serial dilution, read-out: GI50 H292 (EGFR WT)
[30] = AU565, EGFR wt, Her2 amp, read-out: GI50
[31] = Calu-3, EGFR wt, Her2 amp, read-out: GI50
[32] = H1299, EGFR wt, Nras Q61K, read-out: GI50
[33] = A549, EGFR wt, Kras G12S, read-out: GI50
[34] = H460, EGFR wt, Kras G61H, read-out: GI50
[35] = SK-BR-3, EGFR wt, Her2 amp, read-out: GI50
[36] = N87, EGFR wt, Her2 amp, read-out: GI50
[37] = H1975, EGFR L858R/T790M, read-out: GI50
[38] = PC-9, EGFR dE746-A750, read-out: GI50
[39] = HCC827, EGFR dE746-A750, read-out: GI50

Row | SMILES | GI50 [1, 14] | GI50 [3, 16] | GI50 [4, 17] | GI50 [5, 19] | GI50 [6, 20] | GI50 [7, 21] | GI50 [8, 22] | GI50 [9, 24] | GI50 [10] | GI50 [11, 26] | GI50 [12, 28] | GI50 [1, 30] | GI50 [2, 31] | GI50 [3, 32] | GI50 [4, 33] | GI50 [5, 34] | GI50 ([6]; A431, EGFR wt, read-out: GI50) | GI50 [7, 35] | GI50 [8, 36] | GI50 [9, 37] | also measured
1 | C=CC(=O)Nc1cc(Nc2nccc(-n3ccc4c(OC)cccc43)n2)c(OC)cc1N(C)CCN(C)C [Compound 99, N-(5-(4-(4-methoxyl-1H-indol-1-yl)-pyrimidin-2-ylamino)-2-(2-(dimethylamino-ethyl)-methyl-amino)-4-methoxyl-phenyl)-acrylamide] | 0.01 to 0.1 µM | > 1 µM | > 1 µM | > 1 µM | 0.1 to 1 µM | 0.01 to 0.1 µM | < 0.01 µM | < 0.01 µM | < 0.01 µM | 0.01 to 0.1 µM | 0.01 to 0.1 µM |  |  |  |  |  |  |  |  |  | GI50 [2, 15]: 0.00326 µM; GI50 [4, 18]: > 1 µM; GI50 [8, 23]: 0.00135 µM; GI50 [9, 25]: 0.00925 µM; GI50 [11, 27]: 0.0141 µM; GI50 [13, 29]: > 1 µM
2 | C=CC(=O)Nc1cc(Nc2ncnc(Nc3cccc(F)c3)n2)c(OC)cc1N(C)CCN(C)C [Compound 114, N-(5-(4-(3-fluoro-phenylamino)-[1,3,5]triazin-2-ylamino)-2-((2-dimethylamino-ethyl)-methyl-amino)-4-methoxyl-phenyl)-acrylamide] | < 0.01 µM | > 1 µM | > 1 µM | > 1 µM | 0.1 to 1 µM | < 0.01 µM | < 0.01 µM | 0.01 to 0.1 µM | 0.01 to 0.1 µM | < 0.01 µM | < 0.01 µM | 0.01 µM | 0.0072 µM | > 1 µM | > 1 µM | > 1 µM | 0.117 µM | 0.0048 µM | 0.0048 µM | 0.01 µM | GI50 [11, 38]: 0.002 µM; GI50 [12, 39]: 0.0011 µM; GI50 ([13]; H292, EGFR wt, read-out: GI50): > 1 µM
3 | C=CC(=O)Nc1cc(Nc2cc(Nc3cc(OC)c(Cl)cc3Cl)ncn2)c(OC)cc1N(C)CCN(C)C [Compound 136, N-(5-(6-(2,4-dichloro-5-methoxyl-phenylamino)-pyrimidin-4-ylamino)-2-((2-dimethylamino-ethyl)-methyl-amino)-4-methoxyl-phenyl)-acrylamide] | 0.01 to 0.1 µM | > 1 µM | > 1 µM | > 1 µM | 0.1 to 1 µM | 0.01 to 0.1 µM | 0.01 to 0.1 µM | 0.01 to 0.1 µM | < 0.01 µM | 0.01 to 0.1 µM | 0.01 to 0.1 µM |  |  |  |  |  |  |  |  |  | GI50 [2, 15]: 0.0147 µM; GI50 [4, 18]: > 1 µM; GI50 [8, 23]: 0.0112 µM; GI50 [9, 25]: 0.0101 µM; GI50 [11, 27]: 0.0105 µM; GI50 [13, 29]: > 1 µM
4 | C=CC(=O)Nc1cc(Nc2cc(Nc3ccc(F)c(Cl)c3)ncn2)c(OC)cc1N(C)CCN(C)C [Compound 140, N-(5-(6-(3-chloro-4-fluoro-phenylamino)-pyrimidin-4-ylamino)-2-((2-dimethylamino-ethyl)-methyl-amino)-4-methoxyl-phenyl)-acrylamide] | < 0.01 µM | > 1 µM | > 1 µM | > 1 µM | 0.01 to 0.1 µM | < 0.01 µM | < 0.01 µM | < 0.01 µM | < 0.01 µM | < 0.01 µM | < 0.01 µM | 0.0026 µM | 0.0125 µM | > 1 µM | > 1 µM | > 1 µM | 0.0375 µM | 0.0056 µM | 0.0048 µM | 0.0038 µM | GI50 [11, 38]: 0.00038 µM; GI50 [12, 39]: 0.0011 µM; GI50 ([13]; H292, EGFR wt, read-out: GI50): > 1 µM
5 | C=CC(=O)Nc1cc(Nc2cc(Nc3ccc(F)c(Cl)c3)ncn2)c(OC)cc1N1CCN(C2CCN(C)CC2)CC1 [Compound 147, N-(5-(6-(3-chloro-4-fluoro-phenylamino)-pyrimidin-4-ylamino)-4-methoxyl-2-(4-(1-methylpiperidin-4-yl)-piperazin-1-yl)-phenyl)-acrylamide] | < 0.01 µM | > 1 µM | > 1 µM | > 1 µM | 0.01 to 0.1 µM | < 0.01 µM | < 0.01 µM | < 0.01 µM | < 0.01 µM | < 0.01 µM | < 0.01 µM | 0.0026 µM | 0.0125 µM | > 1 µM | 0.896 µM | > 1 µM | 0.0375 µM | 0.0056 µM | 0.0048 µM | 0.0046 µM | GI50 [11, 38]: 0.00058 µM; GI50 [12, 39]: 0.0047 µM; GI50 ([13]; H292, EGFR wt, read-out: GI50): > 1 µM
6 | C=CC(=O)Nc1cc(Nc2cc(-c3cn(C(C)C)c4ccccc34)ncn2)c(OC)cc1N(C)CCN(C)C [Compound 183] | 0.01 to 0.1 µM | > 1 µM | > 1 µM | > 1 µM | 0.1 to 1 µM | 0.01 to 0.1 µM | 0.01 to 0.1 µM | 0.01 to 0.1 µM | 0.01 to 0.1 µM | < 0.01 µM | < 0.01 µM | 0.0195 µM | 0.0234 µM | > 1 µM | > 1 µM | > 1 µM | 0.315 µM | 0.0781 µM | 0.0195 µM | 0.0125 µM | GI50 [11, 38]: 0.00338 µM; GI50 [12, 39]: 0.009 µM; GI50 ([13]; H292, EGFR wt, read-out: GI50): > 1 µM
